Calls of active or inactive are those of the source.
Tests used:
[1] = viability of uninfected HEp-2 cells – cell-based, HTS, cytotoxicity control for RSV inhibitor project, dose response (AID 2410); format: functional; settings: human respiratory syncytial virus
[2] = molecular target: T1, Short transient receptor potential channel 4 (Mus musculus, UniProt Q9QUQ5); assay: block of DAMGO-driven TRPC4 calcium entry – cell-based, HEK293 TRPC4/mu-opioid, Fluo-4 calcium, dose response (AID 434942); format: functional;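 note: potency of inhibitors blocking the TRPC4 calcium response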
T1 sequence (Q9QUQ5 whole entry): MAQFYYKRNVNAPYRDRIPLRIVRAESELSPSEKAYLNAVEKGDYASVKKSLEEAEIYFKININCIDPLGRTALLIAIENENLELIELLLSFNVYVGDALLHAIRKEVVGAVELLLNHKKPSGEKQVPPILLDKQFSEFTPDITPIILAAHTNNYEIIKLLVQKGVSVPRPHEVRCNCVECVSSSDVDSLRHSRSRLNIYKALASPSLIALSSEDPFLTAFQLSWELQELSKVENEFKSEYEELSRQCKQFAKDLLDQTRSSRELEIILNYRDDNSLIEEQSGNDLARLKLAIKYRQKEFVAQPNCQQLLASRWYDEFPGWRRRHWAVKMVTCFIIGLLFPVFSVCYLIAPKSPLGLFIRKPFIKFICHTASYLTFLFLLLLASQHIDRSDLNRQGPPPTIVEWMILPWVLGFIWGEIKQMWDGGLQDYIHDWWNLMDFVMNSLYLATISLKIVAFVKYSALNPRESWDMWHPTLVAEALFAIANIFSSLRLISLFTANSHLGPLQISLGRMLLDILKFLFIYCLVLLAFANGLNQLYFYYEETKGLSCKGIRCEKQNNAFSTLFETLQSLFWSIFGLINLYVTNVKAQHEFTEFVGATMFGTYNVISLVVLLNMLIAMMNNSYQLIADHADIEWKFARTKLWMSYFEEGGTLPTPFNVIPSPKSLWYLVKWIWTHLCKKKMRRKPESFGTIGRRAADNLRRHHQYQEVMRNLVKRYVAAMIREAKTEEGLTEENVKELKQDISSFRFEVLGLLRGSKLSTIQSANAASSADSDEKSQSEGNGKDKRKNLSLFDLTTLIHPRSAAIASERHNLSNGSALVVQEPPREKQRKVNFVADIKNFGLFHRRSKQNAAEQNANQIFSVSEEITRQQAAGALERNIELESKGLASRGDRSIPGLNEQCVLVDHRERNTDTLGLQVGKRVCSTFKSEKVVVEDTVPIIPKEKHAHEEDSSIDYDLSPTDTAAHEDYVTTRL

[3] = molecular target: T2, Heat shock factor protein 1 (Mus musculus, UniProt P38532); assay: decrease of HSF1-responsive luciferase luminescence – cell-based, NIH3T3, dose retest, confirmation (AID 2382); format: functional;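 note: NIH3T3 fibroblasts with HSF1-driven luciferase reporter stressed by proteasome inhibitor MG132; luminescence from HSF1-driven luciferase expression after 8 hours of MG132 stress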
T2 sequence (P38532 whole entry): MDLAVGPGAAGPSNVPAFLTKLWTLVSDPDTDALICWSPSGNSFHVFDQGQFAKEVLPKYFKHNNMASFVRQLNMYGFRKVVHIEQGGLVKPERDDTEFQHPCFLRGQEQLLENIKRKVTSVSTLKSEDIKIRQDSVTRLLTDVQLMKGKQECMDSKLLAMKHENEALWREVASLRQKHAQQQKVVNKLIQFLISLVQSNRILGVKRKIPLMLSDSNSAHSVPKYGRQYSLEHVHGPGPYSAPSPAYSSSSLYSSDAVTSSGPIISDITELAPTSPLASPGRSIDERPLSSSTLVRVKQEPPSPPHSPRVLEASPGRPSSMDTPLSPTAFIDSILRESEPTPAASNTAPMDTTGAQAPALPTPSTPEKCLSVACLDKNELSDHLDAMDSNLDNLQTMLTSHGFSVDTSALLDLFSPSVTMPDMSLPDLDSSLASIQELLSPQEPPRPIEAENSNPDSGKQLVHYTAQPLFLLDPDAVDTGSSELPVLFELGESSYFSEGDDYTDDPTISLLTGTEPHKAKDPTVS

[4] = molecular target: Luciferin 4-monooxygenase (Photinus pyralis, UniProt P08659); assay: inhibition of purified Photinus pyralis luciferase – biochemical, luminescence, dose response (AID 1891)
[5] = molecular target: Nucleotide-binding oligomerization domain-containing protein 2 (Homo sapiens, UniProt Q9HC29); assay: inhibition of NOD2-driven NF-kB reporter – cell-based, luminescence, uHTS, HEK293 (AID 1566); format: functional
Paired box protein Pax-8 = Paired box protein Pax-8 (Homo sapiens, UniProt Q06710); assay: PAX8 transcriptional activity inhibition in RMG-I – RMG-I cells, luciferase, cherry-pick, dose response (AID 687027); format: functional, cell-based;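 note: luciferase reporter driven by Pax8 target thyroperoxidase promoter measured by SteadyGlo luminescence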
HEK293 [6] = assay: inhibition of NOD1-driven NF-kB reporter – cell-based, luminescence, uHTS, primary screen (AID 1578); format: functional; settings: Homo sapiens
HEK293 [7] = assay: cells; format: functional, cell-based; settings: Homo sapiens
HEK293 [8] = assay: cells; format: functional, cell-based; settings: Homo sapiens; remark: listed apart in the source
[9] = Luminescence Cell-Based Dose Confirmation HTS to Identify Inhibitors of Platelet Dense Granule Release. [Related pubchem assays: 1663 (Primary HTS), 1678 (Summary of Project)]; format: functional
HEK293 [10] = assay: NOD2 signaling inhibitors in MDP-stimulated cells, cell-based, uHTS, luminescence (AID 2001); format: functional; settings: Homo sapiens
HEK293 [11] = assay: cells; format: functional, cell-based; settings: Homo sapiens; remark: listed apart in the source
[12] = general cell-killing toxicity readout – plate reader, dry powder samples, cytotoxicity control for PAX8 inhibitor project, dose response (AID 743021); format: functional, cell-based
[13] = molecular target: T3, Ubiquitin-conjugating enzyme E2 N (Homo sapiens, UniProt P61088); format: functional;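 note: Dose-response confirmation in a TR-FRET assay detecting UBC13-driven polyubiquitin chain formation, inhibition measured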
T3 sequence (P61088 whole entry): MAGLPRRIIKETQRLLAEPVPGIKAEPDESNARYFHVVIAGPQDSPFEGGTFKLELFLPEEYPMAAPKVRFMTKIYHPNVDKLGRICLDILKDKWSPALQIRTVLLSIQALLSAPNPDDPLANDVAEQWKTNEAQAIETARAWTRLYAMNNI

[14] = molecular target: Eukaryotic translation initiation factor 4E (Mus musculus, UniProt P63073); assay: blockers of eIF4G binding by eIF4E – biochemical, TR-FRET, dose response (AID 855); format: functional;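 note: potency for disrupting eIF4E binding to eIF4GI seen as loss of FRET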
[15] = molecular target: G-protein coupled receptor 55 (Homo sapiens, UniProt Q9Y2T6); assay: selective activators of receptor GPR55 – imaging, U2OS cells, beta-arrestin-GFP redistribution, primary screen (AID 1961); format: functional
[16] = molecular target: Peroxisome proliferator-activated receptor gamma/Nuclear receptor coactivator 1 (Homo sapiens, UniProt P37231); assay: (§1) TR-FRET dose response biochemical High Throughput Screening assay for agonists of the steroid receptor coactivator 1 (SRC-1) recruitment by the peroxisome proliferator-activated receptor gamma (PPAR gamma): non-selective agonists. [Related pubchem assays (depositor defined):AID1300, AID1808, AID504735, AID631]; format: protein assay
[17] = molecular target: Peroxisome proliferator-activated receptor gamma/Nuclear receptor coactivator 3 (Homo sapiens, UniProt P37231); assay: as §1, with “3 (SRC-3)” for “1 (SRC-1)”, “assays: 1301 (Confirmation screen.), 1048 (Primary screen.)]” for “assays (depositor defined):AID1300, AID1808, AID504735, AID631]”; format: functional
[18] = molecular target: Peroxisome proliferator-activated receptor gamma/Nuclear receptor coactivator 2 (Homo sapiens, UniProt P37231); assay: TR-FRET dose response biochemical High Throughput Screening assay for agonists of the steroid receptor coactivator 2 (SRC-2) recruitment by the peroxisome proliferator-activated receptor gamma (PPAR gamma): non-selective agonists. [Related pubchem assays: 1297, 1032 ]; format: functional
Troponin, cardiac muscle = Troponin, cardiac muscle (Homo sapiens, UniProt P19429+P45379+P63316); assay: Fluorescence-based biochemical high throughput dose response assay for activators of the calcium sensitivity of cardiac Regulated Thin Filaments (RTF). [Related pubchem assays (depositor defined):AID493008, AID493018, AID504382, AID504383]; format: protein-complex assay

Q: Which results are given for `Cc1ccc(Nc2cc(C)nc3ccc(C)cc23)cc1`?
A: CC50 [1]: 45.9 µM (active); EC50 [2]: 1.5 µM (active)

Q: With `COc1ccc(N(Cc2cc3cc(OC)ccc3[nH]c2=O)S(=O)(=O)c2ccc(NC(C)=O)cc2)cc1` as the compound, how does the EC50 [3] read?
A: 0.309 µM (active)

Q: What about the EC50 [4] of the same compound?
A: > 112 µM (not active)

Q: And the EC50 [5]?
A: > 20 µM (inactive)

Q: And the AC50 (Paired box protein Pax-8)?
A: 1.29 µM (active)

Q: For `COc1ccc(N(Cc2cc3cc(OC)ccc3nc2O)S(=O)(=O)c2ccc(NC(C)=O)cc2)cc1`, which EC50 (HEK293 [6]) is on record?
A: > 20 µM (inactive)

Q: What about the IC50 (HEK293 [7]) of the same compound?
A: 7.22 µM (active)

Q: What about the IC50 (HEK293 [8]) of the same compound?
A: > 20 µM (inactive)

Q: And the EC50 [9]?
A: > 112 µM (not active)

Q: What about the IC50 (HEK293 [10]) of the same compound?
A: > 20 µM (inactive)

Q: What about the IC50 (HEK293 [11]) of the same compound?
A: > 20 µM (inactive)

Q: What about the AC50 [12] of the same compound?
A: 49.1 µM (active)

Q: Which EC50 [2] does the source give for `COc1cc(CNC2CCCC2)c(Br)cc1OC1CCCC1` here?
A: 0.0373 µM (active)

Q: For `Cc1ccc(-c2csc(NC(=O)CSc3nc4ccccc4c(=O)n3CCCN(C)C)n2)cc1`, which IC50 [13] is on record?
A: > 20 µM (inactive)

Q: What about the IC50 [14] of the same compound?
A: 50 µM (inactive)

Q: Which EC50 [15] does the source give for `CCN(CC)C(=O)CC(c1ccc(N(C)C)cc1)c1c(OC)cc(OC)c2c(-c3ccccc3)cc(=O)oc12` (configuration not stated) here?
A: 2.74 µM (active)

Q: For `COC(=O)c1sc(N2C(=O)C(O)=C(C(=O)c3ccc(C)o3)C2c2ccc(F)cc2)nc1C` (configuration not stated), which EC50 [16] is on record?
A: 41.9 µM (inactive)

Q: And the EC50 [17]?
A: > 79.4 µM (not active)

Q: What about the EC50 [18] of the same compound?
A: 32.3 µM (not active)

Q: And the EC50 (Troponin, cardiac muscle)?
A: > 71.4 µM (inactive)

Q: With `S=c1[nH]nc(-c2ccc(Cl)cc2)n1-c1ccc2c(c1)OCCO2` as the compound, how does the EC50 (Troponin, cardiac muscle) read?
A: > 71.5 µM (inactive)

From ChEMBL document CHEMBL1201862, “PubChem BioAssay data set” (2004)
